“Also recorded” adds a separate entry of the source. Like-named read-outs stand apart in the source and are kept apart here.
What was measured:
mice [1] = details: cited from earlier work
mice [2] = details: intraperitoneal administration; cited from earlier work
[3] = Acute toxicity in mice with intraperitoneal administration (compound 1); details: both sexes, CD-1 (ICR), mouse, in vivo, ip, printed 'in rats', study in CD-1 mice
Procedure: The study was performed on mice of the CD-1 (ICR) line (6-8 weeks, weight not less than 18 g) of both sexes. A single intraperitoneal injection of compound 1 was used at doses of 1000 mg/kg and 2000 mg/kg in a volume of 1 ml per 40 g of mouse body mass using an insulin syringe. The volume of administration was calculated individually for each animal, based on the body mass recorded immediately before the introduction of the substance.
To prepare a dose of 2000 mg/kg for administration to mice, a portion of 800 mg of compound 1 in a polystyrene boat on a Vibra scale (Shinko Denshi, Japan) was weighed, transferred to a volumetric flask of accuracy class A per 10 ml of volume, dissolved in physiological saline and adjusted to the mark. The solution was filtered with 0.22 μm syringe nozzles (Jet Biofil). […]
(§1) Animals were clinically examined individually after administration for 30 minutes, then at least once per hour for 4 hours, then daily once a day for 14 days. Body mass was recorded immediately before the administration of the preparation to calculate the volume of administration, then once every two days.

[4] = system: penicillin rat epilepsy model (high-amplitude electric discharges, HAED); test: Penicillin model of epilepsy: effect on the electrical activity of the brain; assay type: in vivo
Procedure: Experiments were carried out on male Wistar rats with a body weight of 180-250 g. Under isoflurane anesthesia (1.5%), surgical preparation for the experiment is performed. Urethane ([…]) is used for anesthesia during the experiment. Next, the animal is fixed in a stereotactic installation. 2×2 mm holes are drilled in the skulls of animals over symmetrical areas of the sensorimotor cortex of the brain and a 16-channel silicon-based probe (Neuronexus) is installed with a step of 100 μm between the recording electrodes to divert electrical activity from these areas. A silver chloride electrode, which serves as a combined ground electrode and a reference electrode, is introduced into the cerebellum or the visual cortex to a depth of 2-3 mm. To create a focus of epileptic activity in parallel to the somatosensory zones, 2×2 mm holes are drilled in the area of the visual cortex, into which 10 μl of a solution of sodium salt of benzylpenicillin are applied at a concentration of 40,000 IU/ml. […] The amplitude-frequency characteristics of epileptiform activity are evaluated. […] For statistical processing of experimental data, statistical programs Origin 8.5 and IBM SPSS Statistics are used. The significance of differences between populations is evaluated by the Mann-Whitney U-test. […] Their presence, frequency and amplitude are characteristic indicators of brain epileptic activity.

[5] = Acute toxicity in mice with oral administration (compound 1); details: female, CD-1 (ICR), mouse, in vivo, 5000 mg/kg, printed 'in rats', study in CD-1 mice
Procedure: The study was performed on mice of the CD-1 (ICR) line (6-8 weeks, weight not less than 18 g, females). Two-fold intragastric (oral) administration of compound 1 in a volume of not more than 0.5 ml/30 g of body weight of the mouse using a gastric tube was used.
The introduction was carried out to animals deprived of food (for a period of not less than 8 hours) with free access to water. The volume of administration was calculated individually for each animal, based on the body mass recorded immediately before the introduction of the substance. Access to water and feed was renewed one hour after administration.
To prepare a dose of 5000 mg/kg for administration to mice, a portion of 1.5 g of compound 1 in a polystyrene boat on a Vibra scale (Shinko Denshi, Japan) was weighed, transferred to a volumetric flask of accuracy class A per 10 ml of volume, dissolved in distilled water and adjusted to the mark. Due to the insufficient solubility of compound 1, another 10 ml of distilled water is added to the resulting volume of the solution.
as §1

[6] = system: corazol rat epilepsy model (convulsions caused by corazol); test: Corazol model of epilepsy: development of seizures; assay type: in vivo; details: rats
Procedure: Experiments were carried out on male Wistar rats with a body weight of 180-250 g.
Corazol at a dose of 80 mg/kg is administered subcutaneously in the cervical area of the back.
The intensity of the development of a convulsive seizure was studied on a 6-point scale: • 0—lack of convulsive activity; • 1—hyperkinesia; • 2—trembling, twitching, excessive grooming, stereotypical movements; • 3—clonic convulsions of the front legs with lifting on the hind legs; • 4—pronounced tonic-clonic convulsions, the fall of the animal to the side, the presence of a phase of tonic extensia; • 5—repeated tonic-clonic convulsions, loss of posture; • 6—complete tonic attack with apnea, death of the animal.
To study the effect of the claimed compound 1 on the development of convulsions caused by corazol, compound 1 is dissolved in physiological saline and administered as follows: • at doses of 25 mg/kg, 100 mg/kg intraperitoneally (ip) 30 minutes before the induction of convulsions with corazol; • at doses of 100 mg/kg, 200 mg/kg, 250 mg/kg intragastrically 1 hour before the induction of convulsions with corazol.
The development of convulsive disorder is assessed by the following indicators: • time before the onset of seizures (min); • duration of seizures (sec.); • intensity of seizures on a 6-point scale; • number of animals with repeated convulsions; • number of dead animals in the group.
For statistical processing of experimental data, statistical programs Origin 8.5 and IBM SPSS Statistics are used.
The significance of differences between populations is evaluated by the Mann-Whitney U-test.

rats [7] = details: oral administration; cited from earlier work
rats [8] = details: intravenous injection; cited from earlier work
mice [9] = details: intravenous injection; cited from earlier work

In the case of NC(=O)N1c2ccccc2C=Cc2ccccc21 [carbamazepine], the LD50 (mice [1]; mice, oral administration) is listed as 529 mg/kg and the LD50 (mice [2]) is listed as 114 mg/kg.

In the case of Cc1nc(CS(=O)(=O)O)c(CO)c(CO)c1O [compound 1, (5-hydroxy-3,4-bis (hydroxymethyl)-6-methylpyridin-2-yl) methanesulfonic acid], the LD50 at 14 days [3] was > 2000 mg/kg, the “antiepileptic effect compared with sodium valproate” value ([4]; compound 1 25-100 mg/kg against sodium valproate 600 mg/kg, ip, penicillin model) was 6-24 times and the “suppression of HAED (epileptic electrical activity of the brain)” value ([4]; compound 1 at 25, 50, 100 mg/kg ip, given 30 min after penicillin, 60 minutes after administration, rats) was “completely suppressing HAED; also recorded: completely suppresses the epileptic electrical activity of the brain”. The “amplitude and frequency of HAED” value ([4]; compound 1 at 25, 50, 100 mg/kg ip, rats, penicillin model) was “decrease in the amplitude and frequency of HAED”, the LD50 at 14 days [5] was > 5000 mg/kg and the “prevention / reduction of development of a seizure” value ([6]; 250 mg/kg oral administration, corazol model) was “best results in reducing the development of a seizure; also recorded: complete prevention of seizures in some cases”. For the same molecule, the “intensity and duration of seizures” value ([6]; 25 and 100 mg/kg intraperitoneally and 100 and 200 mg/kg orally, corazol model) was “decrease in the intensity and duration of seizures”, the “effect on development of a seizure relative to 250 mg/kg oral” value ([6]; 100 and 200 mg/kg oral, corazol model) was “slightly less pronounced” and the deaths ([6]; all dosages, corazol model) was “completely prevents deaths”. The “likelihood of recurrence of seizures” value ([6]; all dosages, corazol model) was “greatly reduces the likelihood of recurrence of seizures” and the “duration and intensity of seizures” value ([6]; corazol 80 mg/kg sc, oral and intravenous (so in the source) ways of administration, all doses) was “dose-dependent decrease in the duration and intensity of seizures”.

For CCC1(C)CC(=O)NC1=O (stereo not drawn) [ethosuximide], the LD50 (mice [1]; mice, oral administration) is given as 1530 mg/kg.

In the case of NCC1(CC(=O)O)CCCCC1 [gabapentinum], the LD50 (mice [1]; mice, oral administration) is given as > 5000 mg/kg, the LD50 (rats [7]) is given as > 5000 mg/kg and the LD50 (rats [8]) is given as > 300 mg/kg. The LD50 (mice [9]) was 1000 to 2000 mg/kg.

In the case of Nc1nnc(-c2cccc(Cl)c2Cl)c(N)n1 [lamotrigine], the LD50 (mice [1]; mouse, in vivo, po) is given as 269 mg/kg.

For CC[C@@H](C(N)=O)N1CCCC1=O [levetiracetam], the LD50 (mice [1]; mice, oral administration) is given as > 5000 mg/kg.

For CCC1(c2ccccc2)C(=O)NC(=O)NC1=O [phenobarbital], the LD50 (rats [7]) is listed as 163 mg/kg.

For O=C1N=C([O-])NC1(c1ccccc1)c1ccccc1.[Na+] [sodium phenytoin], the LD50 (mice [1]; mice, oral administration) is listed as 165 mg/kg.

For CCCC(CCC)C(=O)[O-].[Na+] [sodium valproate], the LD50 (mice [1]; mice, oral administration) is listed as 977 mg/kg and the LD50 (mice [2]) is listed as 470 mg/kg.

In the case of CC1(C)O[C@@H]2[C@@H](CO[C@@]3(COS(N)(=O)=O)OC(C)(C)O[C@@H]23)O1 [topiramate], the LD50 (rats [7]) is given as 3570 mg/kg.

For NS(=O)(=O)Cc1noc2ccccc12 [zonisamide], the LD50 (mice [1]; mice, oral administration) is listed as 1829 mg/kg and the LD50 (mice [2]) is listed as 699 mg/kg.

— patent US10844018B2, “Pyridoxine derivative for treatment of epilepsy” (AO “TATKHIMFARMPREPARATY”, priority 2017, dated 2020)
